Structures are written as SMILES.

The text below walks through data of PMC12519234 (2025).

For assay [1], the system named is Tte preQ1 U22Ap (RNA, riboswitch, 2-aminopurine at 22 (replaces U)) CUGGGUCGCAGUAACCCCAGUUAACAAAACAAG
Nature of the assay: stopped-flow 2-aminopurine fluorescence; koff = kon × KD. The note with it: 100 mM KCl, 2 mM MgCl2; 50 mM MOPS pH 7.5, 25 °C; calculated, one approximate value for preQ1 and 4a.

The subject of assay [2] is queT (41 nt) (RNA, riboswitch) ACGUGGUUCAUUCAUACCAUCCCACGUAAAAAAACUAGGAG
Description: 1H NMR imino spectra. The note with it: 25 mM NaCl, 2 mM MgCl2; 15 mM sodium cacodylate pH 6.5, 25 °C, 0.15 mM RNA.

The test system of assay [3] is Tte preQ1 U22Ap (RNA, riboswitch, 2-aminopurine at 22 (replaces U)) CUGGGUCGCAGUAACCCCAGUUAACAAAACAAG
Nature of the assay: 2-aminopurine fluorescence titration. The note with it: 100 mM KCl, 2 mM MgCl2; 50 mM MOPS pH 7.5, 25 °C, 0.5 µM RNA.

Assay [4] deals with preQ1-like (40 nt, lmo2684 upstream region) (RNA, mRNA element) UACAGCUAGCUAGCUGAAAAUUAUAAAAAACUAAAGAGGU
Description: 1H NMR imino spectra. The note with it: 25 mM NaCl, 2 mM MgCl2; 15 mM sodium cacodylate pH 6.5, 25 °C, 0.15 mM RNA; no high affinity association.

For assay [5], the system named is Tte preQ1 U22Ap (RNA, riboswitch, 2-aminopurine at 22 (replaces U)) CUGGGUCGCAGUAACCCCAGUUAACAAAACAAG
Nature of the assay: stopped-flow 2-aminopurine fluorescence. The note with it: 100 mM KCl, 2 mM MgCl2; 50 mM MOPS pH 7.5, 25 °C.

Turning to `NCc1c[nH]c2nc(N)[nH]c(=O)c12`, the koff in assay [1] was ~ 7.5 × 10^−4 s^−1. For the same compound, the binding result in assay [2] was “yes”; in assay [4], “no”. In addition, in assay [3], the “KD(preQ1)” value is on record as 64 nM. Further, the “kon(preQ1)” value in assay [5] came to 13000 M⁻¹ s⁻¹.
